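Assay format: 96-well plates, 48-hour exposure. Abbreviation: GI50, concentration required for 50% inhibition of growth.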 Calls of active or inactive are those of the source. Rule as the data show it: active = GI50 up to about 1.1 µM and inactive = higher.
Legend:
Assay in all cases: growth of human tumour cells (NCI), 48 h
786-0 = test system: 786-0
A549 = test system: A549
CAKI-1 = test system: CAKI-1
CCRF-CEM = test system: CCRF-CEM
COLO 205 = test system: COLO 205
DU-145 = test system: DU-145
EKVX = test system: EKVX
HCT-116 = test system: HCT-116
HL-60 = test system: HL-60
HOP-62 = test system: HOP-62
HOP-92 = test system: HOP-92
HT-29 = test system: HT-29
IGROV-1 = test system: IGROV-1
K562 = test system: K562
KM12 = test system: KM12
LOX IMVI = test system: LOX IMVI
M14 = test system: M14
MDA-MB-435 = test system: MDA-MB-435
MDA-N = test system: MDA-N
MOLT-4 = test system: MOLT-4
NCI-H226 = test system: NCI-H226
OVCAR-3 = test system: OVCAR-3
OVCAR-4 = test system: OVCAR-4
OVCAR-5 = test system: OVCAR-5
OVCAR-8 = test system: OVCAR-8
RPMI-8226 = test system: RPMI-8226
RXF 393 = test system: RXF 393
SF-295 = test system: SF-295
SF-539 = test system: SF-539
SK-MEL-28 = test system: SK-MEL-28
SK-MEL-5 = test system: SK-MEL-5
SK-OV-3 = test system: SK-OV-3
SN12C = test system: SN12C
SNB-19 = test system: SNB-19
SNB-75 = test system: SNB-75
SR = test system: SR
SW-620 = test system: SW-620
T47D = test system: T47D
UO-31 = test system: UO-31
ACHN = test system: ACHN
HCC 2998 = test system: HCC 2998
HCT-15 = test system: HCT-15
Hs-578T = test system: Hs-578T
MCF7 = test system: MCF7
MDA-MB-231 = test system: MDA-MB-231
NCI-H23 = test system: NCI-H23
NCI-H460 = test system: NCI-H460
NCI-H522 = test system: NCI-H522
PC-3 = test system: PC-3
SF-268 = test system: SF-268
SK-MEL-2 = test system: SK-MEL-2
TK-10 = test system: TK-10
U-251 = test system: U-251
UACC-257 = test system: UACC-257
UACC-62 = test system: UACC-62
NCI/ADR-RES = test system: NCI/ADR-RES

With `O=C(O)CCC(=O)c1ccc(Cl)cc1` the GI50 (786-0) was > 100 µM (inactive), the GI50 (A549) was > 100 µM (inactive) and the GI50 (CAKI-1) was > 100 µM (inactive). The GI50 (CCRF-CEM) was > 100 µM (inactive), the GI50 (COLO 205) was > 100 µM (inactive) and the GI50 (DU-145) was > 100 µM (inactive). The GI50 (EKVX) was > 100 µM (inactive), the GI50 (HCT-116) was > 100 µM (inactive) and the GI50 (HL-60) was > 100 µM (inactive). The GI50 (HOP-62) was > 100 µM (inactive), the GI50 (HOP-92) was > 100 µM (inactive) and the GI50 (HT-29) was > 100 µM (inactive). For the same molecule, the GI50 (IGROV-1) was > 100 µM (inactive), the GI50 (K562) was > 100 µM (inactive) and the GI50 (KM12) was > 100 µM (inactive). The GI50 (LOX IMVI) was > 100 µM (inactive), the GI50 (M14) was > 100 µM (inactive) and the GI50 (MDA-MB-435) was > 100 µM (inactive). The GI50 (MDA-N) was > 100 µM (inactive), the GI50 (MOLT-4) was > 100 µM (inactive) and the GI50 (NCI-H226) was > 100 µM (inactive). For the same molecule, the GI50 (OVCAR-3) was > 100 µM (inactive), the GI50 (OVCAR-4) was > 100 µM (inactive) and the GI50 (OVCAR-5) was > 100 µM (inactive). For the same molecule, the GI50 (OVCAR-8) was > 100 µM (inactive), the GI50 (RPMI-8226) was > 100 µM (inactive) and the GI50 (RXF 393) was > 100 µM (inactive). For the same molecule, the GI50 (SF-295) was > 100 µM (inactive), the GI50 (SF-539) was > 100 µM (inactive) and the GI50 (SK-MEL-28) was > 100 µM (inactive). For the same molecule, the GI50 (SK-MEL-5) was > 100 µM (inactive), the GI50 (SK-OV-3) was > 100 µM (inactive) and the GI50 (SN12C) was > 100 µM (inactive). The GI50 (SNB-19) was > 100 µM (inactive), the GI50 (SNB-75) was > 100 µM (inactive) and the GI50 (SR) was > 100 µM (inactive). The GI50 (SW-620) was > 100 µM (inactive), the GI50 (T47D) was > 100 µM (inactive) and the GI50 (UO-31) was > 100 µM (inactive).

In the case of `COc1nc2ccc(COc3ccc(C(=O)NC(CCC(=O)O)C(=O)O)cc3)cc2nc1OC` (configuration not stated), the GI50 (A549) was > 10 µM (inactive), the GI50 (ACHN) was > 10 µM (inactive) and the GI50 (CAKI-1) was > 10 µM (inactive). For the same molecule, the GI50 (CCRF-CEM) was > 10 µM (inactive), the GI50 (COLO 205) was > 10 µM (inactive) and the GI50 (DU-145) was > 10 µM (inactive). For the same molecule, the GI50 (EKVX) was > 10 µM (inactive), the GI50 (HCC 2998) was > 10 µM (inactive) and the GI50 (HCT-15) was > 10 µM. For the same molecule, the GI50 (HL-60) was > 10 µM (inactive), the GI50 (HOP-62) was > 10 µM (inactive) and the GI50 (HOP-92) was > 10 µM (inactive). The GI50 (HT-29) was > 10 µM (inactive), the GI50 (Hs-578T) was > 10 µM (inactive) and the GI50 (IGROV-1) was > 10 µM (inactive). For the same molecule, the GI50 (K562) was > 10 µM (inactive), the GI50 (KM12) was > 10 µM (inactive) and the GI50 (LOX IMVI) was > 10 µM (inactive). The GI50 (M14) was > 10 µM (inactive), the GI50 (MCF7) was > 10 µM (inactive) and the GI50 (MDA-MB-231) was > 10 µM (inactive). The GI50 (MDA-MB-435) was > 10 µM (inactive), the GI50 (MDA-N) was > 10 µM (inactive) and the GI50 (MOLT-4) was > 10 µM (inactive). The GI50 (NCI-H226) was > 10 µM (inactive), the GI50 (NCI-H23) was > 10 µM (inactive) and the GI50 (NCI-H460) was > 10 µM (inactive). The GI50 (NCI-H522) was > 10 µM (inactive), the GI50 (OVCAR-3) was > 10 µM (inactive) and the GI50 (OVCAR-4) was > 10 µM (inactive). The GI50 (OVCAR-5) was > 10 µM (inactive), the GI50 (PC-3) was > 10 µM (inactive) and the GI50 (RPMI-8226) was > 10 µM (inactive). For the same molecule, the GI50 (RXF 393) was > 10 µM (inactive), the GI50 (SF-268) was > 10 µM (inactive) and the GI50 (SF-295) was > 10 µM (inactive). For the same molecule, the GI50 (SF-539) was > 10 µM (inactive), the GI50 (SK-MEL-28) was > 10 µM (inactive) and the GI50 (SK-MEL-2) was > 10 µM (inactive). The GI50 (SK-MEL-5) was > 10 µM (inactive), the GI50 (SK-OV-3) was > 10 µM (inactive) and the GI50 (SN12C) was > 10 µM (inactive). For the same molecule, the GI50 (SNB-19) was > 10 µM (inactive), the GI50 (SNB-75) was > 10 µM (inactive) and the GI50 (SR) was > 10 µM (inactive). For the same molecule, the GI50 (SW-620) was > 10 µM (inactive), the GI50 (T47D) was > 10 µM (inactive) and the GI50 (TK-10) was > 10 µM (inactive). The GI50 (U-251) was > 10 µM (inactive), the GI50 (UACC-257) was > 10 µM (inactive) and the GI50 (UACC-62) was > 10 µM (inactive). The GI50 (UO-31) was > 10 µM (inactive).

With `CCOC(=O)/C=C/C1(CCOC(C)=O)CCCCC1` the GI50 (786-0) was > 10 µM (inactive), the GI50 (A549) was > 10 µM (inactive) and the GI50 (ACHN) was > 10 µM (inactive). The GI50 (CAKI-1) was > 10 µM (inactive), the GI50 (CCRF-CEM) was > 10 µM (inactive) and the GI50 (COLO 205) was > 10 µM (inactive). The GI50 (DU-145) was > 10 µM (inactive), the GI50 (EKVX) was > 10 µM (inactive) and the GI50 (HCC 2998) was > 10 µM (inactive). For the same molecule, the GI50 (HCT-116) was > 10 µM (inactive), the GI50 (HCT-15) was > 10 µM and the GI50 (HL-60) was > 10 µM (inactive). For the same molecule, the GI50 (HOP-62) was > 10 µM (inactive), the GI50 (HOP-92) was > 10 µM (inactive) and the GI50 (HT-29) was > 10 µM (inactive). The GI50 (Hs-578T) was > 10 µM (inactive), the GI50 (IGROV-1) was > 10 µM (inactive) and the GI50 (K562) was > 10 µM (inactive). The GI50 (KM12) was > 10 µM (inactive), the GI50 (LOX IMVI) was > 10 µM (inactive) and the GI50 (M14) was > 10 µM (inactive). For the same molecule, the GI50 (MCF7) was > 10 µM (inactive), the GI50 (MDA-MB-231) was > 10 µM (inactive) and the GI50 (MDA-MB-435) was > 10 µM (inactive). The GI50 (MDA-N) was > 10 µM (inactive), the GI50 (MOLT-4) was > 10 µM (inactive) and the GI50 (NCI-H226) was > 10 µM (inactive). For the same molecule, the GI50 (NCI-H23) was > 10 µM (inactive), the GI50 (NCI-H460) was > 10 µM (inactive) and the GI50 (NCI-H522) was > 10 µM (inactive). For the same molecule, the GI50 (NCI/ADR-RES) was > 10 µM (inactive), the GI50 (OVCAR-3) was > 10 µM (inactive) and the GI50 (OVCAR-4) was > 10 µM (inactive). For the same molecule, the GI50 (OVCAR-5) was > 10 µM (inactive), the GI50 (OVCAR-8) was > 10 µM (inactive) and the GI50 (PC-3) was > 10 µM (inactive). For the same molecule, the GI50 (RPMI-8226) was > 10 µM (inactive), the GI50 (RXF 393) was > 10 µM (inactive) and the GI50 (SF-268) was > 10 µM (inactive). For the same molecule, the GI50 (SF-295) was > 10 µM (inactive), the GI50 (SF-539) was > 10 µM (inactive) and the GI50 (SK-MEL-28) was > 10 µM (inactive). The GI50 (SK-MEL-2) was > 10 µM (inactive), the GI50 (SK-MEL-5) was > 10 µM (inactive) and the GI50 (SK-OV-3) was > 10 µM (inactive). For the same molecule, the GI50 (SN12C) was > 10 µM (inactive), the GI50 (SNB-19) was > 10 µM (inactive) and the GI50 (SNB-75) was > 10 µM (inactive). For the same molecule, the GI50 (SR) was > 10 µM (inactive), the GI50 (SW-620) was > 10 µM (inactive) and the GI50 (T47D) was > 10 µM (inactive). For the same molecule, the GI50 (TK-10) was > 10 µM (inactive), the GI50 (U-251) was > 10 µM (inactive) and the GI50 (UACC-257) was > 10 µM (inactive). For the same molecule, the GI50 (UACC-62) was > 10 µM (inactive) and the GI50 (UO-31) was > 10 µM (inactive).
